# Patent publication US20150031102A1, “METHODS AND COMPOSITIONS FOR ENHANCED PRODUCTION OF BUTANOL BY CLOSTRIDIA” (Butrolix LLC, priority 2012, published 2015)
# Marks after values point to notes of the source that are not given here.
# What was measured:
# C. acetobutylicum [1] = assay: Calculated optimum peptide treatment level (polynomial curve fitted to butanol concentration vs treatment level per culture transfer); type: cell-based, Clostridium acetobutylicum
# Text: FIG. 20. Calculation of optimum peptide treatment level for transfer 13 of the first experiment that tested peptide BP110517 (SEQ ID NO:143) (see Table 1 for data). The four butanol concentration data points were graphed against the treatment levels and a polynomial curve was fitted to the graph.
# The data from the sequential batch culture experiments treated with peptides BP110517 and BP1106213 were used to calculate optimum peptide treatment levels for enhanced butanol production by C. acetobutylicum. The calculation was made for each culture transfer using the butanol concentration results from control and experimental wells. The four data points for each culture transfer were graphed against the treatment levels, and a polynomial curve was fitted to the graph.
# Then, the first derivative of the polynomial fitted to the data for each culture transfer was solved for “x”, which was the maximum point of the fitted polynomial curve (Table 46). The resulting peptide concentration value was assumed to be close to an optimum peptide treatment level that would result in enhanced butanol production.
# C. acetobutylicum [2] = assay: Time course study of replicate 250 mL batch cultures (growth, butanol, residual glucose, yield, productivity); type: cell-based, Clostridium acetobutylicum; settings: for Increased butanol concentration versus untreated: 50 nM BP1106213; for Butanol concentration / Residual glucose: 50 nM peptide, average ± SD of triplicate, second time course study; for Residual glucose: initial glucose 60 g/L
# Procedure: Subsequently, time-course studies were conducted using the optimum peptide treatment level that was determined by the sequential batch transfer experiments. Untreated and peptide-treated cultures were grown in triplicate 250 mL batches that were inoculated with […] of the ninth sequential transfer from 24-well culture plates. The 1/1000 ratio of inoculum to culture volume was the same as that used throughout the prior sequential batch transfer experiments, and the replicate time course batch cultures corresponded to the 10th sequential batch transfer. Samples were recovered from the triplicate control and experimental batches a regular time intervals up to 96 hours of culture. Optical density of the replicates was measured and culture supernatants were recovered following centrifugation and analyzed later for butanol and residual glucose concentrations. The analyses were used to calculate yield and productivity of the cultures.
# Clostridium acetobutylicum strain ATCC 824 was used in all experiments and the growth medium used for sequential batch transfer, time course, and continuous culture experiments contained yeast extract, casamino acids, L-cysteine, L-asparagine, phosphate buffer, trace minerals, and 6% glucose. What are believed to be quorum-sensing peptides that were used in the experiments were chemically synthesized peptides SEQ ID NO: 143 (amino acid sequence: SYPGWSW) and SEQ ID NO: 144 (amino acid sequence: ILILISG). Routine growth of the bacteria as well as the sequential batch and time course experiments were conducted in a Form a Scientific Model 1029 anaerobic gas chamber at 32° C. Continuous cultures were performed at 32° C. using duplicate New Brunswick Scientific BioFlo 3000 apparati with a dilution rate of 0.01 volume per hour, 75 rpm agitation, and nitrogen gas sparging. Optical density of culture samples was measured at 600 nm in a Beckman DU 600 series spectrophotometer and glucose was analyzed using a YSI Model 2700 Select Biochemistry Analyzer with internal glucose calibration. Butanol concentrations were determined by measuring experimental and standard samples using a Varian Saturn 3 Gas Chromatograph/Mass Spectrometer and calculating butanol concentrations using standard curves.
# The study was started by inoculating triplicate 250 mL batches of untreated and peptide-treated medium with 250 μL of the corresponding ninth sequential transfer from 24-well culture plates. Therefore, the replicate time course batch cultures corresponded to the 10th sequential batch transfer. Samples were recovered from the triplicate control and experimental batches at regular time intervals up to 96 hours of culture for measurement of optical density at 600 nm and analysis of butanol and residual glucose concentrations.
# Like the previous time course experiment, this study was started by inoculating triplicate 250 mL batches of untreated and peptide-treated medium with 250 μL of the corresponding ninth sequential transfer from 24-well culture plates. As before, samples were recovered from the triplicate control and experimental batches at regular time intervals up to 96 hours of culture for measurement of optical density and analysis of butanol and residual glucose concentrations.
substance,measurement,setting,value
ILILISG (Derived from Clostridium acetobutylicum SEQ ID NO: 110) [peptide SEQ ID NO: 144],"Calculated Optimum Peptide Level, Average","C. acetobutylicum [1]; average over culture transfers, Expt. 1",46.2 ± 10.7 nM
same,"Calculated Optimum Peptide Level, Average","C. acetobutylicum [1]; average over culture transfers, Expt. 2",40.5 ± 3.8 nM
same,Average optimum peptide treatment level,"C. acetobutylicum [1]; average over culture transfers, both experiments for BP110517, single non-inhibitory experiment for BP1106213, fairly large standard deviations",mid to high 40
same,Calculated Optimum Peptide Level,"C. acetobutylicum [1]; transfer 4, Expt. 1",46.0 nM
same,Calculated Optimum Peptide Level,"C. acetobutylicum [1]; transfer 4, Expt. 2",Inhib.
same,Calculated Optimum Peptide Level,"C. acetobutylicum [1]; transfer 7, Expt. 1",32.4 nM
same,Calculated Optimum Peptide Level,"C. acetobutylicum [1]; transfer 7, Expt. 2",Inhib.
same,Calculated Optimum Peptide Level,"C. acetobutylicum [1]; transfer 10, Expt. 1",49.0 nM
same,Calculated Optimum Peptide Level,"C. acetobutylicum [1]; transfer 10, Expt. 2",Inhib.
same,Calculated Optimum Peptide Level,"C. acetobutylicum [1]; transfer 13, Expt. 1",Inhib.^d
same,Calculated Optimum Peptide Level,"C. acetobutylicum [1]; transfer 13, Expt. 2",43.2 nM
same,Calculated Optimum Peptide Level,"C. acetobutylicum [1]; transfer 16, Expt. 1",50.7 nM
same,Calculated Optimum Peptide Level,"C. acetobutylicum [1]; transfer 16, Expt. 2",Inhib.
same,Calculated Optimum Peptide Level,"C. acetobutylicum [1]; transfer 19, Expt. 1",36.8 nM
same,Calculated Optimum Peptide Level,"C. acetobutylicum [1]; transfer 19, Expt. 2",Inhib.
same,Calculated Optimum Peptide Level,"C. acetobutylicum [1]; transfer 22, Expt. 1",62.4 nM
same,Calculated Optimum Peptide Level,"C. acetobutylicum [1]; transfer 22, Expt. 2",37.8 nM
same,Increased butanol concentration versus untreated,C. acetobutylicum [2]; 72 hours of culture growth,≤ 15%
same,Increased butanol concentration versus untreated,C. acetobutylicum [2]; 96 hours of culture growth,≤ 21%
same,Butanol concentration,C. acetobutylicum [2]; 0 hours,0.23 ± 0.00 g/L
same,Residual glucose,C. acetobutylicum [2]; 0 hours,59.1 ± 0.9 g/L
same,Butanol concentration,C. acetobutylicum [2]; 6 hours,0.24 ± 0.00 g/L
same,Residual glucose,C. acetobutylicum [2]; 6 hours,59.8 ± 0.9 g/L
same,Butanol concentration,C. acetobutylicum [2]; 12 hours,0.26 ± 0.01^c g/L
same,Residual glucose,C. acetobutylicum [2]; 12 hours,60.7 ± 0.8 g/L
same,Butanol concentration,C. acetobutylicum [2]; 15 hours,0.26 ± 0.01^c g/L
same,Residual glucose,C. acetobutylicum [2]; 15 hours,58.4 ± 0.5 g/L
same,Butanol concentration,C. acetobutylicum [2]; 18 hours,0.28 ± 0.01^c g/L
same,Residual glucose,C. acetobutylicum [2]; 18 hours,57.4 ± 0.7 g/L
same,Butanol concentration,C. acetobutylicum [2]; 21 hours,0.32 ± 0.01 g/L
same,Residual glucose,C. acetobutylicum [2]; 21 hours,60.6 ± 0.8 g/L
same,Butanol concentration,C. acetobutylicum [2]; 24 hours,0.52 ± 0.01^c g/L
same,Residual glucose,C. acetobutylicum [2]; 24 hours,49.4 ± 0.7 g/L
same,Butanol concentration,C. acetobutylicum [2]; 27 hours,0.64 ± 0.01 g/L
same,Residual glucose,C. acetobutylicum [2]; 27 hours,50.4 ± 1.9 g/L
same,Butanol concentration,C. acetobutylicum [2]; 30 hours,0.70 ± 0.04 g/L
same,Residual glucose,C. acetobutylicum [2]; 30 hours,49.7 ± 1.9 g/L
same,Butanol concentration,C. acetobutylicum [2]; 33 hours,0.82 ± 0.03 g/L
same,Residual glucose,C. acetobutylicum [2]; 33 hours,47.6 ± 1.2 g/L
same,Butanol concentration,C. acetobutylicum [2]; 36 hours,0.82 ± 0.03 g/L
same,Residual glucose,C. acetobutylicum [2]; 36 hours,47.4 ± 1.3 g/L
same,Butanol concentration,C. acetobutylicum [2]; 48 hours,1.00 ± 0.03 g/L
same,Residual glucose,C. acetobutylicum [2]; 48 hours,44.9 ± 0.5 g/L
same,Butanol concentration,C. acetobutylicum [2]; 72 hours,1.17 ± 0.12^c g/L
same,Residual glucose,C. acetobutylicum [2]; 72 hours,44.1 ± 3.1 g/L
same,Butanol concentration,C. acetobutylicum [2]; 96 hours,0.98 ± 0.07 g/L
same,Residual glucose,C. acetobutylicum [2]; 96 hours,46.4 ± 0.9^c g/L
